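Interpolation was linear, between the two tested concentrations surrounding the appropriate level; five concentrations were tested over 48 hours in 96-well plates. GI50 is the concentration that inhibits growth by half. Definition used: TGI = concentration required for complete inhibition of growth.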
Columns and labels:
Assay in all cases: NCI anticancer screen, dose series, 48 h
786-0 renal = test system: 786-0 renal
A498 renal = test system: A498 renal
A549 NSCLC = test system: A549 NSCLC
ACHN renal = test system: ACHN renal
BT-549 breast = test system: BT-549 breast
CCRF-CEM leukemia = test system: CCRF-CEM leukemia
COLO 205 colon = test system: COLO 205 colon
EKVX NSCLC = test system: EKVX NSCLC
HCC-2998 colon = test system: HCC-2998 colon
HCT-116 colon = test system: HCT-116 colon
HCT-15 colon = test system: HCT-15 colon
HL-60(TB) leukemia = test system: HL-60(TB) leukemia
HOP-62 NSCLC = test system: HOP-62 NSCLC
HOP-92 NSCLC = test system: HOP-92 NSCLC
HS 578T breast = test system: HS 578T breast
HT29 colon = test system: HT29 colon
IGROV1 ovarian = test system: IGROV1 ovarian
K-562 leukemia = test system: K-562 leukemia
KM12 colon = test system: KM12 colon
LOX IMVI melanoma = test system: LOX IMVI melanoma
M14 melanoma = test system: M14 melanoma
MALME-3M melanoma = test system: MALME-3M melanoma
MCF7 breast = test system: MCF7 breast
MDA-MB-231 breast = test system: MDA-MB-231 breast
MDA-MB-435 = test system: MDA-MB-435
MOLT-4 leukemia = test system: MOLT-4 leukemia
NCI-H226 lung = test system: NCI-H226 lung
NCI-H23 lung = test system: NCI-H23 lung
NCI-H460 lung = test system: NCI-H460 lung
NCI-H522 lung = test system: NCI-H522 lung
NCI/ADR-RES ovarian = test system: NCI/ADR-RES ovarian
OVCAR-3 ovarian = test system: OVCAR-3 ovarian
OVCAR-4 ovarian = test system: OVCAR-4 ovarian
OVCAR-5 ovarian = test system: OVCAR-5 ovarian
OVCAR-8 ovarian = test system: OVCAR-8 ovarian
PC-3 prostate = test system: PC-3 prostate
RPMI-8226 leukemia = test system: RPMI-8226 leukemia
RXF 393 renal = test system: RXF 393 renal
SF-268 CNS = test system: SF-268 CNS
SF-295 CNS = test system: SF-295 CNS
SF-539 CNS = test system: SF-539 CNS
SK-MEL-2 melanoma = test system: SK-MEL-2 melanoma
SK-MEL-28 melanoma = test system: SK-MEL-28 melanoma
SK-MEL-5 melanoma = test system: SK-MEL-5 melanoma
SK-OV-3 ovarian = test system: SK-OV-3 ovarian
SN12C renal = test system: SN12C renal
SNB-19 CNS = test system: SNB-19 CNS
SNB-75 CNS = test system: SNB-75 CNS
SR leukemia = test system: SR leukemia
SW-620 colon = test system: SW-620 colon
T-47D breast = test system: T-47D breast
TK-10 renal = test system: TK-10 renal
U251 CNS = test system: U251 CNS
UACC-257 melanoma = test system: UACC-257 melanoma
UACC-62 melanoma = test system: UACC-62 melanoma
UO-31 renal = test system: UO-31 renal

## CC(C)C[C@H]1C(=O)O[C@H](C(C)C)C(=O)N(C)[C@@H](C(C)C)C(=O)O[C@H](C(C)C)C(=O)N(C)[C@@H](C(C)C)C(=O)O[C@H](C(C)C)C(=O)N1C
786-0 renal
  GI50: 3.71 µM
  TGI: > 10 µM
A498 renal
  GI50: 1.72 µM
  TGI: 6.4 µM
A549 NSCLC
  GI50: 3.44 µM
  TGI: > 10 µM
ACHN renal
  GI50: 2.6 µM
  TGI: 8.83 µM
BT-549 breast
  GI50: 3.43 µM
  TGI: > 10 µM
CCRF-CEM leukemia
  GI50: 3.5 µM
  TGI: > 10 µM
COLO 205 colon
  GI50: 1.64 µM
  TGI: 3.29 µM
EKVX NSCLC
  GI50: 3.1 µM
  TGI: > 10 µM
HCC-2998 colon
  GI50: 3.9 µM
  TGI: > 10 µM
HCT-116 colon
  GI50: 3.18 µM
  TGI: > 10 µM
HCT-15 colon
  GI50: 3.05 µM
  TGI: > 10 µM
HL-60(TB) leukemia
  GI50: 2.32 µM
  TGI: 5.23 µM
HOP-62 NSCLC
  GI50: 2.82 µM
  TGI: > 10 µM
HOP-92 NSCLC
  GI50: 1.7 µM
  TGI: 5.51 µM
HS 578T breast
  GI50: 4.1 µM
  TGI: > 10 µM
HT29 colon
  GI50: 3.4 µM
  TGI: > 10 µM
IGROV1 ovarian
  GI50: 4.46 µM
  TGI: > 10 µM
K-562 leukemia
  GI50: 3.7 µM
  TGI: > 10 µM
KM12 colon
  GI50: 3.25 µM
  TGI: > 10 µM
LOX IMVI melanoma
  GI50: 3.19 µM
  TGI: > 10 µM
M14 melanoma
  GI50: 3.65 µM
  TGI: > 10 µM
MALME-3M melanoma
  GI50: 2.06 µM
  TGI: 8.67 µM
MCF7 breast
  GI50: 2.82 µM
  TGI: > 10 µM
MDA-MB-231 breast
  GI50: 2.65 µM
  TGI: 8.22 µM
MDA-MB-435
  GI50: 3.46 µM
  TGI: > 10 µM
MOLT-4 leukemia
  GI50: 3.27 µM
  TGI: > 10 µM
NCI-H226 lung
  GI50: 4.01 µM
  TGI: > 10 µM
NCI-H23 lung
  GI50: 3.19 µM
  TGI: > 10 µM
NCI-H460 lung
  GI50: 3.14 µM
  TGI: > 10 µM
NCI-H522 lung
  GI50: 2.61 µM
  TGI: > 10 µM
NCI/ADR-RES ovarian
  GI50: 2.9 µM
  TGI: > 10 µM
OVCAR-3 ovarian
  GI50: 2.4 µM
  TGI: > 10 µM
OVCAR-4 ovarian
  GI50: 2.37 µM
  TGI: > 10 µM
OVCAR-5 ovarian
  GI50: 2.88 µM
  TGI: > 10 µM
OVCAR-8 ovarian
  GI50: 3.17 µM
  TGI: > 10 µM
PC-3 prostate
  GI50: 3.15 µM
  TGI: > 10 µM
RPMI-8226 leukemia
  GI50: 1.53 µM
  TGI: 5.56 µM
RXF 393 renal
  GI50: 3.33 µM
  TGI: > 10 µM
SF-268 CNS
  GI50: 3.71 µM
  TGI: > 10 µM
SF-295 CNS
  GI50: 2.72 µM
  TGI: > 10 µM
SF-539 CNS
  GI50: 3.2 µM
  TGI: > 10 µM
SK-MEL-2 melanoma
  GI50: 3.04 µM
  TGI: > 10 µM
SK-MEL-28 melanoma
  GI50: 4.23 µM
  TGI: > 10 µM
SK-MEL-5 melanoma
  GI50: 1.87 µM
  TGI: 4.05 µM
SK-OV-3 ovarian
  GI50: 2.21 µM
  TGI: 6.05 µM
SN12C renal
  GI50: 3.09 µM
  TGI: > 10 µM
SNB-19 CNS
  GI50: 3.4 µM
  TGI: > 10 µM
SNB-75 CNS
  GI50: 2.25 µM
  TGI: > 10 µM
SR leukemia
  GI50: 3.65 µM
  TGI: > 10 µM
SW-620 colon
  GI50: 3.38 µM
  TGI: > 10 µM
T-47D breast
  GI50: 2.65 µM
  TGI: 8.43 µM
TK-10 renal
  GI50: 3.27 µM
  TGI: > 10 µM
U251 CNS
  GI50: 3.51 µM
  TGI: > 10 µM
UACC-257 melanoma
  GI50: 2.62 µM
  TGI: 8.49 µM
UACC-62 melanoma
  GI50: 3.47 µM
  TGI: > 10 µM
UO-31 renal
  GI50: 1.81 µM
  TGI: 7.69 µM
